How the values were obtained:
[1] = molecular target: Recombinant purified human JAK3 (Homo sapiens (Human), UniProt P52333); experiment: JAK3 kinase inhibitory activity (ADP Glo assay); conditions: read-out: JAK3 IC50, ATP 5 uM, 1 hour 30° C.
[2] = molecular target: Recombinant purified human BTK (Homo sapiens (Human), UniProt Q06187); experiment: BTK kinase inhibitory activity (ADP Glo assay); conditions: read-out: BTK IC50, ATP 10 uM, 1 hour 30° C.
[3] = system: JAK3 kinase (STAT5 phosphorylation induced by IL-2 in HT-2 cells); experiment: JAK3-mediated cell assay (HT-2/IL-2 assay), STAT5 phosphorylation; type: cell-based; conditions: HT2, compound 30 minutes, IL-2 20 ng/ml 10 minutes, HTRF phospho-STAT5 (Tyr694)
Method: The inhibitory activities against JAK3 kinase at the cellular level were measured for the compounds prepared in the Examples through in vitro analysis of STAT5 phosphorylation induced by IL-2 stimulation in HT-2 cells. Specifically, STAT5 phosphorylation was analyzed using HTRF®phospho-STAT5 (Tyr694) assay kit (Cisbio, 64AT5PEG), which was purchased from Cisbio. HT-2 cells were cultured for 2 hours in growth factor-free medium. The cultured HT-2 cells were dispensed into 96-well plates by 50 ul so as to be a density of 2.5×10^5 cells/well. The compounds prepared in the previous Examples were prepared so as to be finally a 0.3% DMSO aqueous solution, and HT-2 cells was treated with the compounds for 30 minutes. After the compound treatment, IL-2 was prepared so as to be finally a concentration of 20 ng/ml, and HT-2 cells was treated for 10 minutes. The cells were then disrupted by treating lysis buffers for 30 minutes. The level of STAT5 phosphorylation was measured according to the instructions of HTRF® phospho-STAT5 assay kit, and the inhibitory activity of the compounds according to the invention was calculated. For the analysis of the results of each compound, Microsoft Excel was used, and IC50 values were calculated by SigmaPlot software.

Chain of Recombinant purified human BTK (Q06187 whole entry): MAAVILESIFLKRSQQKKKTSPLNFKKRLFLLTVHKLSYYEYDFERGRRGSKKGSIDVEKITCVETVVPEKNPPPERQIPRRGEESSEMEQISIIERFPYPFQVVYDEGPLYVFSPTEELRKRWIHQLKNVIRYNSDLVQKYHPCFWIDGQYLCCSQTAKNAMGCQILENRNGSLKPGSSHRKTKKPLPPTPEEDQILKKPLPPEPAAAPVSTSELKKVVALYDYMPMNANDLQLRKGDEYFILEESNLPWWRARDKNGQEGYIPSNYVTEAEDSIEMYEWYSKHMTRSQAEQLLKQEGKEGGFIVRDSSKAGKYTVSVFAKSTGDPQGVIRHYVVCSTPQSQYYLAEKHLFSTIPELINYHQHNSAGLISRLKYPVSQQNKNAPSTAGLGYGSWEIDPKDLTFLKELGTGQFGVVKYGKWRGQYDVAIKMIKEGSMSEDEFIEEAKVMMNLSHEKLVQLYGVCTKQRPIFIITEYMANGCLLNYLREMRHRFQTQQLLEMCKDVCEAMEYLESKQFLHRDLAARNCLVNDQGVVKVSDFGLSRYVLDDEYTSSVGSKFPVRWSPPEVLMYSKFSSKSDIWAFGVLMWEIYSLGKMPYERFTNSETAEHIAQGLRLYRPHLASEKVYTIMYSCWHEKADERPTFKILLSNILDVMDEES
Chain of Recombinant purified human JAK3 (P52333 whole entry): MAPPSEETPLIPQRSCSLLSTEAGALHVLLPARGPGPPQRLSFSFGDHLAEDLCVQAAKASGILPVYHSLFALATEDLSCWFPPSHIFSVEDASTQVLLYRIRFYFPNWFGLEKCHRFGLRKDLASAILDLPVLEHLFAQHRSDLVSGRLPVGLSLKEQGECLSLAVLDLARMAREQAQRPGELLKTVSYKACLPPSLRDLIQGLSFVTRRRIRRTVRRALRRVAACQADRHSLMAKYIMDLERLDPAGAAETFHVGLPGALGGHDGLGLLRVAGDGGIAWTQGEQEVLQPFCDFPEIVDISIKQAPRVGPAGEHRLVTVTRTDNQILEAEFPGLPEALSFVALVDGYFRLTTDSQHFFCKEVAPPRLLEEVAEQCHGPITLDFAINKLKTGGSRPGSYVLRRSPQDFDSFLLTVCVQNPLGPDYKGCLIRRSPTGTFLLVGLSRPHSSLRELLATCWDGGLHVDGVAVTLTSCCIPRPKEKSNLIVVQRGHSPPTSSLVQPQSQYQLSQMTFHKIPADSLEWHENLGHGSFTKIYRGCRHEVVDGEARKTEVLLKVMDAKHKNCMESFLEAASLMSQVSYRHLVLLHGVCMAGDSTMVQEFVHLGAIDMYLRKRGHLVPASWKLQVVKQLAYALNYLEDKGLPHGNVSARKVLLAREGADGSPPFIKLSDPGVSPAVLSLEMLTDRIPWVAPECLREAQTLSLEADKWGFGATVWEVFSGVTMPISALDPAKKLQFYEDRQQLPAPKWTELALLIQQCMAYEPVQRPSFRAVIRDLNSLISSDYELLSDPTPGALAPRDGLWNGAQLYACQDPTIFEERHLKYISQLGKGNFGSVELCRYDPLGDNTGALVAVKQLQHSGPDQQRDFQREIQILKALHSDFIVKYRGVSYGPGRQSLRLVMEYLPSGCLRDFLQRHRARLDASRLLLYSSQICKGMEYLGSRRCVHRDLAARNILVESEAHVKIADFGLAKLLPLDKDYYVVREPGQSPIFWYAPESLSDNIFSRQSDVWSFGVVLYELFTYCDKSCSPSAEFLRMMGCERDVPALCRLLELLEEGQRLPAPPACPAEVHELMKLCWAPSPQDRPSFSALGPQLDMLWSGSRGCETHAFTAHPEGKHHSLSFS

Row | SMILES | IC50 [1] [nM] | IC50 [2] [nM] | IC50 [3] [nM]
1 | C=CC(=O)N1CC[C@@H](F)[C@@H](Nc2nc(Nc3cnn(CC)c3)nc3[nH]cc(Cl)c23)C1 [Example 1, 1-((3S,4R)-3-(5-chloro-2-(1-ethyl-1H-pyrazol-4-ylamino)-7H-pyrrolo[2,3-d]pyrimidin-4-ylamino)-4-fluoropiperidin-1-yl)prop-2-en-1-one] | 0.1 | 0.6 | 30.9
2 | C=CC(=O)N1CC[C@H](F)[C@@H](Nc2nc(Nc3cnn(CC)c3)nc3[nH]cc(Cl)c23)C1 [Example 12, 1-((3S,4S)-3-(5-chloro-2-(1-ethyl-1H-pyrazol-4-ylamino)-7H-pyrrolo[2,3-d]pyrimidin-4-ylamino)-4-fluoropiperidin-1-yl)prop-2-en-1-one] | 0.2 | 1 | 25.4
3 | C=CC(=O)N1CC[C@@H](F)[C@@H](Nc2nc(Nc3cnn(CC)c3)nc3[nH]cc(C#N)c23)C1 [Example 6, 4-((3S,4R)-1-acryloyl-4-fluoropiperidin-3-ylamino)-2-(1-ethyl-1H-pyrazol-4-ylamino)-7H-pyrrolo[2,3-d]pyrimidine-5-carbonitrile] | 0.2 | 0.9 | –
4 | C=CC(=O)N1CC[C@@H](F)[C@@H](Nc2nc(Nc3cnn(C4CC4)c3)nc3[nH]cc(C#N)c23)C1 [Example 8, 4-((3S,4R)-1-acryloyl-4-fluoropiperidin-3-ylamino)-2-(1-cyclopropyl-1H-pyrazol-4-ylamino)-7H-pyrrolo[2,3-d]pyrimidine-5-carbonitrle] | 0.3 | 0.9 | –
5 | C=CC(=O)N1CC[C@@H](F)[C@@H](Nc2nc(Nc3cnn(CC(F)F)c3)nc3[nH]cc(C#N)c23)C1 [Example 7, 4-((3S,4R)-1-acryloyl-4-fluoropiperidin-3-ylamino)-2-(1-(2,2-difluoroethyl)-1H-pyrazol-4-ylamino)-7H-pyrrolo[2,3-d]pyrimidine-5-carbonitrle] | 0.2 | 0.8 | –
6 | C=CC(=O)N1CC[C@@H](F)[C@@H](Nc2nc(Nc3cnn(CC)c3)nc3[nH]cc(C)c23)C1 [Example 10, 1-((3S,4R)-3-(2-(1-ethyl-1H-pyrazol-4-ylamino)-5-methyl-7H-pyrrolo[2,3-d]pyrimidin-4-ylamino)-4-fluoropiperidin-1-yl)prop-2-en-1-one] | 0.5 | 3.3 | 242
7 | C=CC(=O)N1CC[C@@H](F)[C@@H](Nc2nc(Nc3cnsc3)nc3[nH]cc(Cl)c23)C1 [Example 5, 1-((3S,4R)-3-(5-chloro-2-(isothiazol-4-ylamino)-7H-pyrrolo[2,3-d]pyrimidin-4-ylamino)-4-fluoropiperidin-1-yl)prop-2-en-1-one] | 0.6 | 3.9 | 288
8 | C=CC(=O)N1CC[C@@H](F)[C@@H](Nc2nc(Nc3cnoc3)nc3[nH]cc(C)c23)C1 [Example 11, 1-((3S,4R)-4-fluoro-3-(2-(isoxazol-4-ylamino)-5-methyl-7H-pyrrolo[2,3-d]pyrimidin-4-ylamino)piperidin-1-yl)prop-2-en-1-one] | 0.7 | 9.1 | 248
9 | C=CC(=O)N1CC[C@@H](F)[C@@H](Nc2nc(Nc3cnoc3)nc3[nH]cc(Cl)c23)C1 [Example 4, 1-((3S,4R)-3-(5-chloro-2-(isoxazol-4-ylamino)-7H-pyrrolo[2,3-d]pyrimidin-4-ylamino)-4-fluoropiperidin-1-yl)prop-2-en-1-one] | 0.2 | 3.2 | 51.8
10 | C=CC(=O)N1CC[C@@H](F)[C@@H](Nc2nc(Nc3cnn(C4CC4)c3)nc3[nH]cc(Cl)c23)C1 [Example 3, 1-((3S,4R)-3-(5-chloro-2-(1-cyclopropyl-1H-pyrazol-4-ylamino)-7H-pyrrolo[2,3-d]pyrimidin-4-ylamino)-4-fluoropiperidin-1-yl)prop-2-en-1-one] | 0.1 | 0.8 | –
11 | C=CC(=O)N1CC[C@@H](F)[C@@H](Nc2nc(Nc3cnoc3)nc3[nH]cc(C#N)c23)C1 [Example 9, 4-((3S,4R)-1-acryloyl-4-fluoropiperidin-3-ylamino)-2-(isoxazol-4-ylamino)-7H-pyrrolo[2,3-d]pyrimidine-5-carbonitrle] | 0.3 | 2.2 | 282
12 | C=CC(=O)N1CC[C@@H](F)[C@@H](Nc2nc(Nc3cnn(CC(F)F)c3)nc3[nH]cc(Cl)c23)C1 [Example 2, 1-((3S,4R)-3-(5-chloro-2-(1-(2,2-difluoroethyl)-1H-pyrazol-4-ylamino)-7H-pyrrolo[2,3-d]pyrimidin-4-ylamino)-4-fluoropiperidin-1-yl)prop-2-en-1-one] | 0.1 | 0.8 | 49
